Among the test systems are NCI-H226 lung; UACC-62 melanoma; HS 578T breast; MALME-3M melanoma; HCT-116 colon; RPMI-8226 leukemia; SK-MEL-5 melanoma; CCRF-CEM leukemia; KM12 colon; RXF 393 renal.
What all share (experiment): NCI tumour cell line growth inhibition, 48 h

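Step 1: Grow cells in 96-well plates. Step 2: Expose to compound for 48 hours at 5 concentrations. Step 3: Interpolate endpoints linearly; if unreached, use highest concentration. GI50 marks 50% less growth. TGI denotes the concentration required for complete inhibition of growth.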

For `COc1cc(-c2oc3c(OC)c(O)cc(O)c3c(=O)c2OC)ccc1O`, the TGI with NCI-H226 lung is 97.2 µM; with UACC-62 melanoma, 24.6 µM; in the assay with HS 578T breast, 6.83 µM; in the assay with MALME-3M melanoma, 97.5 µM; with HCT-116 colon it was over 100 µM; in the assay on RPMI-8226 leukemia, 46.3 µM. The TGI in the assay on SK-MEL-5 melanoma was 20.4 µM; with CCRF-CEM leukemia it was 24.9 µM; in the assay with KM12 colon, over 100 µM; with RXF 393 renal, 51.5 µM.
As for `CN(C)C(=S)SCC(N)=O`, the TGI with NCI-H226 lung, with UACC-62 melanoma, in the assay with HS 578T breast, with MALME-3M melanoma, in the assay with HCT-116 colon and in the assay with RPMI-8226 leukemia was over 100 µM each time. Besides, the TGI in the assay with SK-MEL-5 melanoma, with CCRF-CEM leukemia, in the assay on KM12 colon and with RXF 393 renal was over 100 µM in each case.
For `Cn1c2ccccc2c2[nH]c3ccccc3c(=O)c21`, the TGI with NCI-H226 lung, with UACC-62 melanoma, with HS 578T breast, in the assay with MALME-3M melanoma, in the assay with HCT-116 colon and with RPMI-8226 leukemia was over 100 µM throughout. Further, the TGI with SK-MEL-5 melanoma, with CCRF-CEM leukemia, in the assay on KM12 colon and in the assay with RXF 393 renal was over 100 µM each time.
For `CN(C)CC1=Nc2cccc3cccc(c23)N1`, the TGI in the assay on NCI-H226 lung was 37.4 µM; with UACC-62 melanoma, 29.6 µM; in the assay on HS 578T breast it was over 100 µM; with MALME-3M melanoma it was 36.5 µM; in the assay with HCT-116 colon, 30.8 µM; in the assay with RPMI-8226 leukemia it was 55.8 µM. In addition, the TGI in the assay on SK-MEL-5 melanoma is 28.7 µM; with CCRF-CEM leukemia, over 100 µM; in the assay with KM12 colon, 59.3 µM; in the assay on RXF 393 renal, 31.9 µM.
With `CC(=O)n1c(-c2ccc(Cl)c(Cl)c2)cn(-c2ccc(Cl)cc2)c1=O`, the GI50 was 24.3 µM in the assay with NCI-H226 lung; 19.8 µM in the assay on UACC-62 melanoma; 15.5 µM in the assay with HS 578T breast; 32 µM with MALME-3M melanoma; 19.6 µM in the assay with HCT-116 colon; 18.8 µM in the assay on RPMI-8226 leukemia. The GI50 was 32.2 µM in the assay on SK-MEL-5 melanoma, 16.8 µM in the assay with CCRF-CEM leukemia, 67 µM in the assay on KM12 colon and 11.4 µM in the assay with RXF 393 renal. In addition, the TGI in the assay with NCI-H226 lung is 74.5 µM; in the assay on UACC-62 melanoma, 55.8 µM; in the assay on HS 578T breast, 36.5 µM; with MALME-3M melanoma, over 100 µM; with HCT-116 colon it was over 100 µM; in the assay on RPMI-8226 leukemia it was 67.7 µM. In addition, the TGI in the assay on SK-MEL-5 melanoma is over 100 µM; in the assay on CCRF-CEM leukemia it was 38 µM; with KM12 colon, over 100 µM; in the assay on RXF 393 renal it was 27 µM.
Consider `CCCCN(CCCC)CCC(O)c1cc2ccc(C(F)(F)F)cc2c2cc(C(F)(F)F)ccc12` (stereo not given), for which the GI50 in the assay with NCI-H226 lung was 2.88 µM; in the assay with UACC-62 melanoma it was 2.49 µM; in the assay on HS 578T breast, 1.55 µM; in the assay with MALME-3M melanoma, 2.34 µM; with HCT-116 colon, 1.59 µM; in the assay with RPMI-8226 leukemia, 2.28 µM. For the same compound, the GI50 is 1.76 µM with SK-MEL-5 melanoma, 2.96 µM with CCRF-CEM leukemia, 2.93 µM in the assay on KM12 colon and 1.56 µM with RXF 393 renal. Also, the TGI in the assay on NCI-H226 lung amounted to 10.5 µM; with UACC-62 melanoma, 6.53 µM; with HS 578T breast it was 4.62 µM; with MALME-3M melanoma, 5.51 µM; in the assay on HCT-116 colon, 3.04 µM; with RPMI-8226 leukemia, 6.17 µM. Also, the TGI turned out to be 3.15 µM in the assay with SK-MEL-5 melanoma, 8.96 µM in the assay on CCRF-CEM leukemia, 9.24 µM in the assay on KM12 colon and 3.16 µM in the assay on RXF 393 renal.
`CN(C)c1ncnc2c1ccn2C1OC(CO)C(O)C1O` (stereo not given): the GI50 in the assay on NCI-H226 lung was over 100 µM; in the assay with UACC-62 melanoma it was over 100 µM; in the assay on HS 578T breast, 2.71 µM; in the assay on MALME-3M melanoma, 92.6 µM; in the assay with HCT-116 colon it was 2.97 µM; in the assay on RPMI-8226 leukemia, 5.88 µM. The GI50 is over 100 µM with SK-MEL-5 melanoma, 0.234 µM in the assay with CCRF-CEM leukemia, 34.9 µM with KM12 colon and 18.1 µM in the assay with RXF 393 renal. The TGI was over 100 µM in the assay on NCI-H226 lung; over 100 µM in the assay on UACC-62 melanoma; 40.2 µM in the assay with HS 578T breast; over 100 µM in the assay with MALME-3M melanoma; over 100 µM in the assay on HCT-116 colon; over 71.4 µM in the assay with RPMI-8226 leukemia. The TGI is over 100 µM with SK-MEL-5 melanoma, 1.76 µM with CCRF-CEM leukemia, over 100 µM in the assay with KM12 colon and over 100 µM in the assay with RXF 393 renal.
For `CC1=NN(c2ccccc2)C(=O)C1N=Nc1ccc(S(N)(=O)=O)cc1` (stereo not given), the TGI in the assay with NCI-H226 lung, in the assay on UACC-62 melanoma, with HS 578T breast, in the assay with MALME-3M melanoma, in the assay on HCT-116 colon and with RPMI-8226 leukemia was over 100 µM in each case. In addition, the TGI with SK-MEL-5 melanoma, in the assay on CCRF-CEM leukemia, with KM12 colon and in the assay with RXF 393 renal was over 100 µM throughout.
As to `Nc1cc(-c2ccccc2)n(C(=O)Nc2ccc(Oc3ccccc3)cc2)n1`, the GI50 in the assay with NCI-H226 lung was 49.5 µM; in the assay on UACC-62 melanoma it was over 100 µM; with HS 578T breast, 31.9 µM; in the assay on MALME-3M melanoma, over 100 µM; in the assay on HCT-116 colon, 53.5 µM; in the assay with RPMI-8226 leukemia it was 19.7 µM. Also, the GI50 in the assay on SK-MEL-5 melanoma is over 100 µM; with CCRF-CEM leukemia, 18.9 µM; with KM12 colon it was over 100 µM; in the assay on RXF 393 renal, 23 µM. Moreover, the TGI in the assay on NCI-H226 lung, in the assay with UACC-62 melanoma, with HS 578T breast, in the assay on MALME-3M melanoma, in the assay on HCT-116 colon and in the assay on RPMI-8226 leukemia was over 100 µM throughout. Besides, the TGI in the assay with SK-MEL-5 melanoma is over 100 µM; in the assay on CCRF-CEM leukemia, 93.3 µM; in the assay with KM12 colon, over 100 µM; in the assay on RXF 393 renal, 68.3 µM.
For the compound `COc1cc2nncc(SCc3ccc(Cl)c(Cl)c3)c2cc1OC`, the TGI in the assay on NCI-H226 lung, with UACC-62 melanoma, in the assay with HS 578T breast, in the assay on MALME-3M melanoma, in the assay with HCT-116 colon and in the assay on RPMI-8226 leukemia was over 100 µM in each case. In addition, the TGI with SK-MEL-5 melanoma, in the assay with CCRF-CEM leukemia, in the assay with KM12 colon and with RXF 393 renal was over 100 µM in each case.

(Values after PubChem BioAssay (NCI).)
